Laboratory results reported in PMC11891452, “Molecular Insights Into β‐Glucuronidase Inhibition by Alhagi Graecorum Flavonoids: A Computational and Experimental Approach” (ChemistryOpen, 2024).

Legend:
[1] = molecular target: T1, β‐glucuronidase (Escherichia coli, UniProt P05804); assay: in vitro β‐glucuronidase inhibition assay with PNPG as substrate; assay type: biochemical; conditions: pH 7.4, 37 °C, 30 min, mean±SD; for IC50: PNPG substrate; for inhibition at 10 µM: inhibitor 10 μM, PNPG 250 μM, read-out: Inhibition rate 10 μM (%)
T1 construct: purchased Sigma (USA)
T1 sequence (P05804 whole entry): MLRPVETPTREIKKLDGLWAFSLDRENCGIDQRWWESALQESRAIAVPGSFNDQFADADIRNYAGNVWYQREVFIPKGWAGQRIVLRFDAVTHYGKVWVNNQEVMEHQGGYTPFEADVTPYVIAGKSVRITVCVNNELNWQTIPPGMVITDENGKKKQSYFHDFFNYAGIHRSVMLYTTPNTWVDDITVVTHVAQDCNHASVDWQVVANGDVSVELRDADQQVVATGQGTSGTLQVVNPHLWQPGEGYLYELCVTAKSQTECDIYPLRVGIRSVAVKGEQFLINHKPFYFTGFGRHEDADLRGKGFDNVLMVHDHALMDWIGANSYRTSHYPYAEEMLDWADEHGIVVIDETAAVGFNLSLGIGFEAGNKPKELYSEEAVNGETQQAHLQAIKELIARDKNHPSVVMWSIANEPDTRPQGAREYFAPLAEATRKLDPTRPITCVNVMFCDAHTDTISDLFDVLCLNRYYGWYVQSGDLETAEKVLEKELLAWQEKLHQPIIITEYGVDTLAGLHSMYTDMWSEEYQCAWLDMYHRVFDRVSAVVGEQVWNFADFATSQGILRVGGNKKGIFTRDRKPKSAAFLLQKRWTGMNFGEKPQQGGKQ
Text: The substrate p‐Nitrophenyl‐β‐D‐glucuronide (PNPG) and the employed reference drug (−)‐Epigallocatechin gallate (EGCG) were purchased from Sigma‐Aldrich. For this study, β‐glucuronidase, the enzyme of interest, was purchased from Sigma (USA). All other chemicals and solvents used were in the highest purity state or HPLC grade. Five isolated flavonoids from A. graecorum were assigned for their β‐glucuronidase inhibitory efficacy. We prepared the β‐glucuronidase enzyme according to the method reported by Weng et al..[27] A 100 mM stock solution of the substrate (PNPG) was prepared using […] and stored at −20 °C for subsequent utilization. Milli‐Q water was used exclusively for both the PNPG solution and the 0.1 M phosphate buffer solution (pH 7.4).
To estimate the activities of tested flavonoids as inhibitors against β‐glucuronidase, we employed PNPG as the substrate. The assessment procedure followed well‐documented previously reported protocols.[28] In brief, 96‐well plate assays were performed (100 μL/well) to assess β‐glucuronidase inhibition by flavonoids. Each well contained: β‐glucuronidase (2 μg/mL, 10 μL), flavonoid/EGCG inhibitor (10 μM, 10 μL), PNPG substrate (250 μM, 10 μL), and PBS buffer (pH 7.4, 70 μL). Reactions were done in triplicate. Enzyme activity was estimated by tracking PNP formation (OD₄₁₀ nm) after incubation (37 °C, 30 min). A standard curve (0–120 μM PNP) was used to quantify PNP. Relative activity (%) was calculated compared to the blank control. In addition, EGCG was employed as a reference drug. IC50 assays for flavonoid inhibition of β‐glucuronidase were conducted at temperature of 37 °C for 30 minutes. Each reaction contained: β‐glucuronidase (2.0 μg/mL, 10 μL), flavonoid/EGCG (varying concentrations, 0.001–1000 μM, 10 μL), and PBS buffer (pH 7.4, 70 μL). Relative activity (%) was measured as enzyme activity with an inhibitor compared to activity without an inhibitor. A concentration‐response curve was constructed using relative activity data to determine IC50 values.
(§1) To ensure reproducibility, all data are presented as the mean value±standard deviation (SD). This reflects the average value obtained from three independent trials. IC50 values, signifying the inhibitor concentration required for half‐maximal response, were determined from the concentration‐response curves. The IC50 and inhibition constant (Ki) values were estimated using nonlinear regression by the GraphPad Prism 9.0 software.

[2] = molecular target: T1, β‐glucuronidase; assay: inhibition kinetics (Michaelis‐Menten, Lineweaver‐Burk and slope plots) of PNPG hydrolysis; assay type: biochemical; conditions: for mode of inhibition: Lineweaver‐Burk plots, PNPG hydrolysis; for Ki: PNPG 200-1000 μM, from slope plots of Lineweaver‐Burk plots
Text: To analyze the binding interactions between the tested inhibitors and the target enzyme, we constructed Michaelis‐Menten and Lineweaver‐Burk plots. These plots helped us understand how the inhibitors affect the enzyme′s kinetics. The Lineweaver‐Burk plot′s intersection point was used to identify the inhibition mode (noncompetitive, competitive, uncompetitive, or mixed). Established methods were employed to determine the specific inhibition mode and Ki values.[27, 28]
as §1

SMILES	IC50 [1]	inhibition at 10 µM [1]	mode of inhibition [2]	Ki [2]
O=c1c(O)c(-c2cc(O)c(O)c(O)c2)oc2cc(O)cc(O)c12 [myricetin]	3.95 ± 0.04 µM	92.59 ± 0.56%	noncompetitive	3.07 µM
COc1cc(-c2cc(=O)c3c(O)cc(O)cc3o2)ccc1O [chrysoeriol]	–	87.97 ± 0.65%	noncompetitive	–
O=C(O[C@@H]1Cc2c(O)cc(O)cc2O[C@@H]1c1cc(O)c(O)c(O)c1)c1cc(O)c(O)c(O)c1 [EGCG, (−)‐Epigallocatechin gallate, reference compound]	3.26 ± 0.05 µM	96.14 ± 0.54%	mixed	1.42 µM
COc1ccc(-c2oc3cc(O)cc(O)c3c(=O)c2O)cc1O [tamarixetin]	19.9 ± 1.23 µM	80 ± 1.71%	–	–
O=C1C[C@@H](c2ccc(O)cc2)Oc2cc(O)cc(O)c21 [naringenin]	52.3 ± 2.44 µM	56 ± 2.5%	–	–
COc1cc(-c2oc3cc(O)cc(O)c3c(=O)c2O)ccc1O [isorhamnetin]	26.4 ± 0.72 µM	73.9 ± 1.09%	–	–
